# Laboratory results as given in patent publication US12606561B2, “Substituted pyrazolo[1,5-a][1,3,5]triazines as CDK inhibitors” (QURIENT CO., LTD., priority 2018, dated 2026).
# What was measured:
# CDK2/Cyclin A = target: T1, CDK2/Cyclin A (Homo sapiens, UniProt P24941); test: Enzymatic assay for CDK2 (LANCE Ultra kinase assay, FRET based); format: biochemical; conditions: ATP at Km
# T1 construct: purchased Invitrogen PV6290
# Outline: (§1)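 Inhibition was measured at ATP Km with 68 nM ULight-MBP peptide and CDK2/Cyclin A ([…]) or CDK5/p25 ([…]), using 8-dose 4-fold compound dilutions from DMSO. Kinase reaction ran 60 min at 23° C, then Eu anti-phospho-MBP plus EDTA were added for another 60 min before the fluorescence read.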
# A2780 = A2780 viability assay (CellTiter-Glo, 72 hours); format: cell-based; conditions: Homo sapiens; A2780 cells
# Outline: (§2)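 Each line was plated at its own density (1×10^4, 5×10^3 and 1×10^3 cells/well for MV4-11, OVCAR-3 and A2780 respectively) in RPMI-1640 with 10% FBS. Treatment with compound, 0.0015 uM to 10 uM and DMSO under 0.1%, lasted 72 h. Surviving cells were quantified by CellTiter-Glo.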
# OVCAR-3 = OVCAR-3 viability assay (CellTiter-Glo, 72 hours); format: cell-based; conditions: Homo sapiens; OVCAR-3 cells
# Outline: as §2
# MV4-11 = test: Cellular MV4-11 viability assay (CellTiter-Glo, 72 hours); format: cell-based; conditions: Homo sapiens; MV4-11 cells
# Method: Human […] cell line, MV4-11_(ATCC, Cat #CRL-9591), NSCLC (Non-small cell lung cancer) cell line H460 (ATCC, Cat #HTB-177), A2780 (ECACC, Cat #93112519) and OVCAR-3(ATCC, Cat #HTB-161) were obtained from ATCC. Cells were grown in RPMI-1640 media (Invitrogen, Cat #22400-089) supplemented with 10% FBS (Invitrogen, Cat #10099141) and 1% penicillin/streptomycin (Invitrogen, Cat #15070063) and cultured at 37° C., 5% CO2 in a humidified chamber. All cell lines were routinely tested for mycoplasma.
# To effect of the CDK7 inhibitor to inhibit the growth of target cancer cells, viability assay were conducted a 72 hour time period. Briefly, the candidate cell line was plated in 96 well plate at the following density of cells respectively. 1×10^4 cells/well for MV4-11, 5×10^3 for H460 and OVCAR-3, and 1×10^3 for A2780. After 24 hours, the cells were treated with various concentrations of the compound (ranging from 0.0015 uM to 10 uM). DMSO solvent without compound served as a control and final DMSO concentration lest than 0.1%. After 72 hours of incubation at 37° C., 5% CO2 incubator, cells were analyzed for the viability using the CellTiter-Glo Luminescent Cell Viability Assay (Promega, Cat #G7570). All viability assays were performed in duplicate and Luminescence was read using an Envision (Perkin Elmer, USA). Data was analyzed using XLfit software.
# CDK5/p25 = target: T2, CDK5/p25 (Homo sapiens, UniProt Q00535); test: Enzymatic assay for CDK5 (LANCE Ultra kinase assay, FRET based); format: biochemical; conditions: ATP at Km
# T2 construct: purchased Invitrogen PR8543B
# T2 sequence (Q00535 whole entry): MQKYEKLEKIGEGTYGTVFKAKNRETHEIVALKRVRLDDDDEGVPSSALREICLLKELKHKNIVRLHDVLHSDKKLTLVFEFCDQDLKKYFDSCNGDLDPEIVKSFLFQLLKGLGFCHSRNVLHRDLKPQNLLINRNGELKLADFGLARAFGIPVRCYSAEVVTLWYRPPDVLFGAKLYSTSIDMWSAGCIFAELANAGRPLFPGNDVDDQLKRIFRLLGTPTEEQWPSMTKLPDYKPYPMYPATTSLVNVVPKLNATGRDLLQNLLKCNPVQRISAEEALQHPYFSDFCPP
# T2 sequence (Q15078 99-307 partner limits assumed): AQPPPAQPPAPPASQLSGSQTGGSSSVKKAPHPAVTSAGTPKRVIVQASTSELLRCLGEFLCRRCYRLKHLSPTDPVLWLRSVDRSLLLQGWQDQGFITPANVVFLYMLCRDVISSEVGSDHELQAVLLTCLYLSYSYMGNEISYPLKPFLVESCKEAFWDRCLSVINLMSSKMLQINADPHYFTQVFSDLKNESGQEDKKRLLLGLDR
# Outline: as §1
# CDK1/Cyclin B = target: T3, CDK1/Cyclin B (Homo sapiens, UniProt P06493); test: Enzymatic assay for CDK1 (LANCE Ultra kinase assay, FRET based); format: biochemical; conditions: ATP at Km; read-out: CDK1 enzymatic activity IC50
# T3 construct: purchased Invitrogen PR4768C
# T3 sequence (P06493 whole entry): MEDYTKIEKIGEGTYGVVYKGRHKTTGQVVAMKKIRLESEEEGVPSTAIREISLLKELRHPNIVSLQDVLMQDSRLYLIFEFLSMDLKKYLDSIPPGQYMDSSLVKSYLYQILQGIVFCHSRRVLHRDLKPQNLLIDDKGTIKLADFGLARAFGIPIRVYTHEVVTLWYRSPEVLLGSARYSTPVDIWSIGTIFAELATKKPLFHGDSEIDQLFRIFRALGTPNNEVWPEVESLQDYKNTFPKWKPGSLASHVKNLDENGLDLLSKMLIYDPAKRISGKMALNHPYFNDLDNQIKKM
# T3 sequence (P14635 whole entry partner): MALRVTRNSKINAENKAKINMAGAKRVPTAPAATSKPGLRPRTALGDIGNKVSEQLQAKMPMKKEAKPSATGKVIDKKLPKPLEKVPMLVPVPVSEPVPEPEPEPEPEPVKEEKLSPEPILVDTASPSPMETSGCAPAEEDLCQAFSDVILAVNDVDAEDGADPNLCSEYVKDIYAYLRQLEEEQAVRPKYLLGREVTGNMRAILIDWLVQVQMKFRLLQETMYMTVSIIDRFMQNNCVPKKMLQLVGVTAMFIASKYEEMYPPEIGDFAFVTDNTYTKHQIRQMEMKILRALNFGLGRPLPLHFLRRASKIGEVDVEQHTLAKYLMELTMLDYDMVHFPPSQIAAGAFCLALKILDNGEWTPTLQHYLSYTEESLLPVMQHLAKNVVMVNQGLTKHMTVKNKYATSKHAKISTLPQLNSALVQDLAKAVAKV
# Outline: (§3)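 Kinase activity of each purified CDK/cyclin complex was followed in a FRET format where a Europium anti-phospho-antibody recognises phosphorylated ULight-labeled peptide. ATP was held at its Km.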
# CDK7/Cyclin H/MNAT1 = target: T4, CDK7/Cyclin H/MNAT1 (Homo sapiens, UniProt P50613); test: Enzymatic assay for CDK7 (LANCE Ultra kinase assay, FRET based); format: biochemical; conditions: for IC50: ATP at Km
# T4 construct: purchased Invitrogen PR6749B
# T4 sequence (P50613 whole entry): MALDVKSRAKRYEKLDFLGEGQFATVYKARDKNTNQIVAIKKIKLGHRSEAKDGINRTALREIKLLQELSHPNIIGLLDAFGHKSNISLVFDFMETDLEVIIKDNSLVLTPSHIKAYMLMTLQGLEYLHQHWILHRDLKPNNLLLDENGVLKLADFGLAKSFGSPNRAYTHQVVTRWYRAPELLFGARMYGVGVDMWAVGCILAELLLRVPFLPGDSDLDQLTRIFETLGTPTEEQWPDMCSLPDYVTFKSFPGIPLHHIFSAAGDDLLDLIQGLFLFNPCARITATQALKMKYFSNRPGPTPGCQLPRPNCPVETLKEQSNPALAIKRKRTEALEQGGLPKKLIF
# T4 sequence (P51946 whole entry partner): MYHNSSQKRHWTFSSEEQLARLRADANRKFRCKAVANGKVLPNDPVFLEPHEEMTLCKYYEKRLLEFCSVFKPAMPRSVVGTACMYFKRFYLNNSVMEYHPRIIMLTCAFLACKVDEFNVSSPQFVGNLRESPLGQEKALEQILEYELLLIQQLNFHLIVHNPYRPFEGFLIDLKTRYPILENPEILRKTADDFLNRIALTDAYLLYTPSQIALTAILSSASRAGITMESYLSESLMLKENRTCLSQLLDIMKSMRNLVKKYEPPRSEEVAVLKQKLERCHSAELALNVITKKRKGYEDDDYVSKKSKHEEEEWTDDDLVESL
# T4 sequence (P51948 whole entry partner): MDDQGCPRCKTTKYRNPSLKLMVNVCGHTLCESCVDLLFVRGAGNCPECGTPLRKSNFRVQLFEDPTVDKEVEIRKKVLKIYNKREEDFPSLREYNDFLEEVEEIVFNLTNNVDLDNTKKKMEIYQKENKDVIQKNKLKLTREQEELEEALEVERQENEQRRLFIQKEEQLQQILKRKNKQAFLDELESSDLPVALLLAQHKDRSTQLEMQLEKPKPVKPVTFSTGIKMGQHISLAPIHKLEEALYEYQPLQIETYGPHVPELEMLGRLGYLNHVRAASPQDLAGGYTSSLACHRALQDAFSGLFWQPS
# Outline: as §3
Compound,IC50 (CDK2/Cyclin A) [nM],IC50 (A2780) [nM],IC50 (OVCAR-3) [nM],IC50 (MV4-11) [nM],IC50 (CDK5/p25) [nM],IC50 (CDK1/Cyclin B) [nM],IC50 (CDK7/Cyclin H/MNAT1) [nM],CDK1/CDK7: Selectivity of CDK7 inhibition over CDK1 inhibition (CDK7/Cyclin H/MNAT1),CDK2/CDK7: Selectivity of CDK7 inhibition over CDK2 inhibition (CDK7/Cyclin H/MNAT1),CDK5/CDK7: Selectivity of CDK7 inhibition over CDK5 inhibition (CDK7/Cyclin H/MNAT1)
CC(C)c1cnn2c(NCc3ccccc3-c3nccc4cc(NC(=O)/C=C/CN(C)C)ccc34)nc(N3CCNCC3)nc12 [Compound 59],> 1000,< 1000,< 1000,< 1000,> 1000,> 1000,< 100,A (A indicates [fold] > 500),A (A indicates [fold] > 500),A (A indicates [fold] > 500)
C=CC(=O)Nc1ccc2c(-c3ccccc3CNc3nc(NC[C@H]4CCNC[C@@H]4O)nc4c(C(C)C)cnn34)nccc2c1 [Compound 60],> 1000,< 1000,< 1000,< 1000,> 1000,> 1000,< 100,A (A indicates [fold] > 500),A (A indicates [fold] > 500),A (A indicates [fold] > 500)
CC(C)=CC(=O)Nc1ccc2c(-c3ccccc3CNc3nc(N4CCC(N)CC4)nc4c(C(C)C)cnn34)nccc2c1 [Compound 40],> 1000,< 1000,< 1000,< 1000,> 1000,> 1000,< 100,A (A indicates [fold] > 500),A (A indicates [fold] > 500),B (B indicates 50 < [fold] ≤ 500)
C=C(F)C(=O)Nc1cccc2cc(-c3cccc(C)c3CNc3nc(NC[C@H]4CCNC[C@@H]4O)nc4c(C(C)C)cnn34)[nH]c12 [Compound 78],> 1000,< 1000,1000 to 10000,< 1000,> 1000,> 1000,< 100,A (A indicates [fold] > 500),A (A indicates [fold] > 500),B (B indicates 50 < [fold] ≤ 500)
CC(C)c1cnn2c(NCc3ccccc3-c3nccc4cc(NC(=O)/C=C/CN(C)C)ccc34)nc(N3CCC(N(C)C)CC3)nc12 [Compound 39],> 1000,< 1000,< 1000,< 1000,> 1000,> 1000,< 100,A (A indicates [fold] > 500),A (A indicates [fold] > 500),B (B indicates 50 < [fold] ≤ 500)
C/C=C/C(=O)Nc1ccc2c(-c3ccccc3CNc3nc(NC[C@H]4CCNC[C@@H]4O)nc4c(C(C)C)cnn34)nccc2c1 [Compound 68],> 1000,< 1000,< 1000,< 1000,> 1000,> 1000,< 100,A (A indicates [fold] > 500),A (A indicates [fold] > 500),A (A indicates [fold] > 500)
CC(C)c1cnn2c(NCc3ccccc3-c3nccc4cc(NC(=O)/C=C/CN(C)C)ccc34)nc(N[C@H]3CC[C@H](O)C3)nc12 [Compound 32],> 1000,< 1000,< 1000,< 1000,> 1000,> 1000,< 100,A (A indicates [fold] > 500),A (A indicates [fold] > 500),A (A indicates [fold] > 500)
CC(C)c1cnn2c(NCc3ccccc3-c3nccc4cc(NC(=O)/C=C/CN(C)C)ccc34)nc(N3CCC(O)CC3)nc12 [Compound 31],> 1000,< 1000,< 1000,< 1000,> 1000,> 1000,< 100,A (A indicates [fold] > 500),A (A indicates [fold] > 500),A (A indicates [fold] > 500)
C=C(C)C(=O)Nc1ccc2c(-c3ccccc3CNc3nc(NC[C@H]4CCNC[C@@H]4O)nc4c(C(C)C)cnn34)nccc2c1 [Compound 66],> 1000,< 1000,< 1000,< 1000,> 1000,> 1000,< 100,A (A indicates [fold] > 500),A (A indicates [fold] > 500),A (A indicates [fold] > 500)
CC(C)c1cnn2c(NCc3ccccc3-c3nccc4cc(NC(=O)/C=C/CN(C)C)ccc34)nc(N3CCC(NC(=O)OC(C)(C)C)CC3)nc12 [Compound 75],> 1000,< 1000,< 1000,< 1000,> 1000,> 1000,100 to 1000,B (B indicates 50 < [fold] ≤ 500),B (B indicates 50 < [fold] ≤ 500),B (B indicates 50 < [fold] ≤ 500)
CC(C)c1cnn2c(NCc3ccccc3-c3nccc4cc(NC(=O)/C=C/CN(C)C)ccc34)nc(-n3ccc(CO)n3)nc12 [Compound 41],> 1000,< 1000,< 1000,< 1000,> 1000,> 1000,< 100,B (B indicates 50 < [fold] ≤ 500),B (B indicates 50 < [fold] ≤ 500),B (B indicates 50 < [fold] ≤ 500)
CC(C)c1cnn2c(NCc3ccccc3-c3nccc4cc(NC(=O)/C=C/CN(C)C)ccc34)nc(NCCC(C)(C)O)nc12 [Compound 35],> 1000,< 1000,< 1000,< 1000,> 1000,> 1000,< 100,B (B indicates 50 < [fold] ≤ 500),B (B indicates 50 < [fold] ≤ 500),B (B indicates 50 < [fold] ≤ 500)
C=C(C)C(=O)Nc1ccc2c(-c3ccccc3CNc3nc(N4CCC(N)CC4)nc4c(C(C)C)cnn34)nccc2c1 [Compound 48],> 1000,< 1000,< 1000,< 1000,> 1000,> 1000,< 100,A (A indicates [fold] > 500),A (A indicates [fold] > 500),A (A indicates [fold] > 500)
C/C=C/C(=O)Nc1ccc2c(-c3ccccc3CNc3nc(NC[C@H]4CNC[C@@H]4O)nc4c(C(C)C)cnn34)nccc2c1 [Compound 77],> 1000,1000 to 10000,1000 to 10000,< 1000,> 1000,> 1000,< 100,A (A indicates [fold] > 500),A (A indicates [fold] > 500),A (A indicates [fold] > 500)
